Data published in US6664253B2, “Neurokinin antagonists” (Boehringer Ingelheim Pharma KG, priority 2000, dated 2003).

Target: T1, NK1-receptor (substance P-receptor) (Homo sapiens, UniProt P25103)
T1 construct: expressed in transfected cells; host or cells: IM-9 human lymphoblastoma cells
Assay: NK1-receptor affinity, displacement of 125I-labelled substance P on IM-9 cells
Assay type: binding
Settings: human lymphoblastoma cells (IM-9) with cloned NK1-receptors
Protocol: The receptor affinity to the NK1-receptor (substance P-receptor) is determined on human lymphoblastoma cells (IM-9) with cloned NK1-receptors, by measuring the displacement of ^125I-labelled substance P. The Ki-values thus obtained show the efficacy of the compounds.

T1 sequence (P25103 whole entry): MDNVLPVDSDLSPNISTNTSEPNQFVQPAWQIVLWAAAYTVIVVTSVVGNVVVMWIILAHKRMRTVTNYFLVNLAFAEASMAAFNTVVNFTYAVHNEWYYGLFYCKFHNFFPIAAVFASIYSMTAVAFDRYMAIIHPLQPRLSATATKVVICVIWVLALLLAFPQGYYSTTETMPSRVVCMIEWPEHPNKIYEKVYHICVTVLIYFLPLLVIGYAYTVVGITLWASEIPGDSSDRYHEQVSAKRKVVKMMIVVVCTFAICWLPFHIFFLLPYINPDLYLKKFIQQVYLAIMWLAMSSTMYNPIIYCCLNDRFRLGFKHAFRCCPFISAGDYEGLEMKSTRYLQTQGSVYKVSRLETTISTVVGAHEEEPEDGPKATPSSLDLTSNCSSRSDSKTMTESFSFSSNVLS

## CN(CCc1cc(C(F)(F)F)cc(C(F)(F)F)c1)C(=O)[C@H](c1ccccc1)N1CCC(NC(=O)Nc2ccccc2)CC1 [Example 7]
  Ki: 800 pM

## CC1CC(=O)N(C)C(=O)N1C1CCN([C@H](C(=O)N(C)CCc2cc(C(F)(F)F)cc(C(F)(F)F)c2)c2ccccc2)CC1 (stereo partly drawn) [Example 5]
  Ki: 600 pM

## CNC(=O)NC1CCN(C(C(=O)N(C)CCc2cc(C(F)(F)F)cc(C(F)(F)F)c2)c2ccccc2)CC1 (stereo not drawn) [Example 1, N-[2-(3,5-bis-trifluoromethyl-phenyl)-ethyl]-N-methyl-2-[4-(3-methyl-ureido)-piperidin-1-yl]-2-phenyl-acetamide]
  Ki: 700 pM

## CN(CCc1cc(C(F)(F)F)cc(C(F)(F)F)c1)C(=O)[C@H](c1ccccc1)N1CCC(N2CCCOC2=O)CC1 [Example 2, (S)-N-[2-(3,5-bis-trifluoromethyl-phenyl)-ethyl]-N-methyl-2-[4-(2-oxo-[1.3]oxazinan-3-yl)-piperidin-1-yl]-2-phenyl-acetamide]
  Ki: 1700 pM

## O=C(Nc1ccccc1)NC1CCN(C(C(=O)NCc2cc(C(F)(F)F)cc(C(F)(F)F)c2)c2ccccc2)CC1 (stereo not drawn) [Example B-7, reference compound]
  Ki: 432000 pM

## CN(CCc1cc(C(F)(F)F)cc(C(F)(F)F)c1)C(=O)[C@H](c1ccccc1)N1CCC(N2CCC(=O)N(C)C2=O)CC1 [Example 4]
  Ki: 600 pM

## CN(CCc1cc(C(F)(F)F)cc(C(F)(F)F)c1)C(=O)[C@H](c1ccccc1)N1CCC(N2CCNC2=O)CC1 [Example 6]
  Ki: 3500 pM

## CN(CCc1cc(C(F)(F)F)cc(C(F)(F)F)c1)C(=O)[C@H](c1ccccc1)N1CCC(N2C(=O)COC2=O)CC1 [Example 3]
  Ki: 700 pM

## CC(=O)N1CCN(C2CCN(C(C(=O)NCc3cc(C(F)(F)F)cc(C(F)(F)F)c3)c3ccccc3)CC2)C1=O (stereo not drawn) [Example B-6, reference compound]
  Ki: 165000 pM
